≈ marks a conversion by molar mass, not a printed value. Read-outs that look alike come from different tables or passages of the source.
Columns and labels:
Botrytis cinerea = experiment: In vitro inhibition assay for volatile fungicide, 12-well plates (Example 7); type: cell-based
Procedure: For testing activity against fungi pathogens, an in vitro inhibition assay for volatile antimicrobial compounds is developed using 12-Well (7 milliliter (mL) volume per well) microtiter plates. A 3-mL volume of full-strength Potato Dextrose Agar (PDA) is added to each well. After cooling, 1 microliter (μL) of 1×10^6 per mL Botrytis cinerea spore suspension is spot pipetted to the center of the agar. For the first experiment, inoculated plates are allowed to germinate for 5 days at 4° C. For the second experiment, plates are inoculated immediately prior to volatile fungicide treatment. Small Whatman #1 filter disks (Cat. No. 1001-0155) are placed, in duplicate, on the underside of a polyethylene PCR plate sealing film.
The acetone is permitted to evaporate for 5 minutes. The headspace around the Botrytis cinerea inoculum is then sealed inside the well by the film with the adhering disk containing the fungicide. Plates are inverted, placed over the treated disks and sealed to prevent any of the chemical from flaking from the disk and falling onto the inoculated agar. After 14 days of storage at 4° C., cultures are evaluated for percent growth relative to control. […]

Penicillium expansum [1] = experiment: Blue mold on apple, volatile assay; type: in vivo
Procedure: Compound A is mixed with acetone and 250 μL of the mixture is pipetted into a small glass tube. […] After incubation, fruits are evaluated by measuring the diameter (mm) of rot development (browning) up to 7 days at 21° C.

B. cinerea = experiment: In vitro contact assay, amended agar (Example 24); type: cell-based; details: Botrytis cinerea, 72 h; amended agar; 100% control; 3 days at 23 C; read-out: Contact MIC (mg/L) B. cinerea
Procedure: (§1) Contact assay: 6-well (16.5 mL volume per well) microtiter plates are used for an in vitro inhibition assay. […] A 7.5-mL volume of the amended media is added to each well of the microtiter plate. […] The plates are sealed with a clear film and incubated for 3 days at 23° C. After incubation, plates are evaluate for percent growth relative to acetone only control.

P. expansum = experiment: In vitro contact assay, amended agar (Example 24); type: cell-based; details: Penicillium expansum, 72 h; amended agar; 100% control; 3 days at 23 C; read-out: Contact MIC (mg/L) P. expansum
Procedure: as §1

Penicillium expansum [2] = experiment: Blue mold on apple and pear, contact assay (Example 25); type: in vivo; details: Contact (dip); rate not given; day 3 at 21 C after 5 days at 1 C
Procedure: A 250 mL solution of each concentration is used to dip two inoculated fruits, one minute per fruit, performed in triplicate per rate. The dipped fruits are then placed back into the clamshells and then into the SnapWare container and incubated at 1° C. for 5 days. […] Volatile application of Compound A results in excellent inhibition of browning and sporulation, whereas all other active ingredients result in no or little inhibition.

Epidermophyton floccus = experiment: In vitro volatile assay (Example 26); type: cell-based; details: Epidermophyton, 120 h, 5 days at 28 C, 100% control, read-out: MIC (mg/L) Epidermophyton floccus
Procedure: (§2) Volatile assay: 6-well (16.5 mL volume per well) microtiter plates are used in an in vitro inhibition assay for Compounds A and 31, and compared to other registered fungicides (5-fluorocytosine, Amphotericin B, aspofungin diacetate, Fluconazole and Itraconazole). A 7.5-mL volume of half strength PDA is added to each well. After drying, a mycelial plug (5 mm diameter) is aseptically obtained from actively growing cultures of Epidermophyton floccus, Trichophyton rubrum, or Trichophyton mentagrophytes and placed at the center of the plate with the mycelial side in contact with the agar. A Whatman #1 filter disk (Cat. No. 1001-325) is placed, in duplicate, on the underside of a polyethylene PCR plate sealing film. […] The headspace around the inoculum is then sealed inside the well by the film with the adhering disk containing the fungicide and incubated inverted for 5 days at 28° C.

[3] = test system: Trichophyton mentagrophytes; experiment: In vitro volatile assay (Example 26); type: cell-based; details: Trichophyton mentagrophytes, 120 h, 5 days at 28 C, 100% control, read-out: MIC (mg/L) Trichophyton mentagrophytes
Procedure: as §2

Trichophyton rubrum = experiment: In vitro volatile assay (Example 26); type: cell-based; details: Trichophyton rubrum, 120 h, 5 days at 28 C, 100% control, read-out: MIC (mg/L) Trichophyton rubrum
Procedure: as §2

C. albicans = experiment: In vitro volatile assay, yeast infection species (Example 27); type: cell-based; details: Candida albicans
Procedure: More specifically, growth inhibition of yeast infection fungal species C. albicans and C. krusei (or I. orientalis) by volatile treatment of Compound 10 was assessed via a volatile assay.
as §2, with “Compound 10 (i.e., Compound A).” for “Compounds A and 31, and compared to other registered fungicides (5-fluorocytosine, Amphotericin B, aspofungin diacetate, Fluconazole and Itraconazole).”, “C. albicans and C. krusei (or I. orientalis)” for “Epidermophyton floccus, Trichophyton rubrum, or Trichophyton mentagrophytes”, “The acetone/methanol is permitted to evaporate for 5 minutes. The” for “The”

OB1OCc2cc(F)ccc21 [Compound A, 5-fluoro-1,3-dihydro-1-hydroxy-2,1-benzoxaborole]
Botrytis inhibition % (in vitro) (Botrytis cinerea; 0.0006 mg per disk): 46% | Botrytis inhibition % (in vitro) (Botrytis cinerea; 0.001 mg per disk): 69% | Botrytis inhibition % (in vitro) (Botrytis cinerea; 0.0024 mg per disk): 85% | Botrytis inhibition % (in vitro) (Botrytis cinerea; 0.005 mg per disk): 100% | Botrytis inhibition % (in vitro) (Botrytis cinerea; 0.01 mg per disk): 100% | Botrytis inhibition % (in vitro) (Botrytis cinerea; 0.023 mg per disk): 100% | Botrytis inhibition % (in vitro) (Botrytis cinerea; 0.04 mg per disk): 100% | Botrytis inhibition % (in vitro) (Botrytis cinerea; 0.08 mg per disk): 100% | Botrytis inhibition % (in vitro) (Botrytis cinerea; 0.16 mg per disk): 100% | Botrytis inhibition % (in vitro) (Botrytis cinerea; 0.31 mg per disk): 100% | Botrytis inhibition % (in vitro) (Botrytis cinerea; 0.63 mg per disk): 100% | Botrytis inhibition % (in vitro) (Botrytis cinerea; 1.25 mg per disk): 100% | Rate giving 100% in vitro inhibition of Botrytis cinerea (Botrytis cinerea; volatile, 14 days at 4 C): 0.005 mg/disk | Browning Rot (diameter; mm) (Penicillium expansum [1]; 0.02 mg/L, Day 0): 0.0 mm | Browning Rot (diameter; mm) (Penicillium expansum [1]; 0.02 mg/L, Day 2): 0.9 mm | Browning Rot (diameter; mm) (Penicillium expansum [1]; 0.02 mg/L, Day 4): 2.8 mm | Browning Rot (diameter; mm) (Penicillium expansum [1]; 0.02 mg/L, Day 7): 6.9 mm | Browning Rot (diameter; mm) (Penicillium expansum [1]; 0.1 mg/L, Day 0): 0.0 mm | Browning Rot (diameter; mm) (Penicillium expansum [1]; 0.1 mg/L, Day 2): 0.0 mm | Browning Rot (diameter; mm) (Penicillium expansum [1]; 0.1 mg/L, Day 4): 0.3 mm | Browning Rot (diameter; mm) (Penicillium expansum [1]; 0.1 mg/L, Day 7): 2.0 mm | Browning Rot (diameter; mm) (Penicillium expansum [1]; 0.5 mg/L, Day 0): 0.0 mm | Browning Rot (diameter; mm) (Penicillium expansum [1]; 0.5 mg/L, Day 2): 0.0 mm | Browning Rot (diameter; mm) (Penicillium expansum [1]; 0.5 mg/L, Day 4): 0.0 mm | Browning Rot (diameter; mm) (Penicillium expansum [1]; 0.5 mg/L, Day 7): 0.4 mm | Browning Rot (diameter; mm) (Penicillium expansum [1]; 2.5 mg/L, Day 0): 0.0 mm | Browning Rot (diameter; mm) (Penicillium expansum [1]; 2.5 mg/L, Day 2): 0.0 mm | Browning Rot (diameter; mm) (Penicillium expansum [1]; 2.5 mg/L, Day 4): 0.0 mm | Browning Rot (diameter; mm) (Penicillium expansum [1]; 2.5 mg/L, Day 7): 0.0 mm | MIC (B. cinerea): < 0.08 mg/L | MIC (P. expansum): 0.4 mg/L (≈ 2.63 µM) | Apple Browning (mm) (Penicillium expansum [2]): 9.9 mm | Apple Sporulation (mm) (Penicillium expansum [2]): 2.3 mm | Pear Browning (mm) (Penicillium expansum [2]): 18.9 mm | Pear Sporulation (mm) (Penicillium expansum [2]): 8.4 mm | MIC (Epidermophyton floccus): 2 mg/L (≈ 13.2 µM) | MIC [3]: 2 mg/L (≈ 13.2 µM) | MIC (Trichophyton rubrum): 2 mg/L (≈ 13.2 µM) | inhibition at 0.017 µg/mL (C. albicans; 0.017 mg/L, read-out: Growth Inhibition (%) C. albicans): 2% | inhibition at 0.035 µg/mL (C. albicans; 0.035 mg/L, read-out: Growth Inhibition (%) C. albicans): 1.6% | inhibition at 0.07 µg/mL (C. albicans; 0.07 mg/L, read-out: Growth Inhibition (%) C. albicans): 7.9% | inhibition at 0.1 µg/mL (C. albicans; 0.1 mg/L, read-out: Growth Inhibition (%) C. albicans): 11.9% | inhibition at 0.3 µg/mL (C. albicans; 0.3 mg/L, read-out: Growth Inhibition (%) C. albicans): 18.5% | inhibition at 0.6 µg/mL (C. albicans; 0.6 mg/L, read-out: Growth Inhibition (%) C. albicans): 22.2% | inhibition at […] (C. albicans; 1.1 mg/L, read-out: Growth Inhibition (%) C. albicans): 40.2% | inhibition at […] (C. albicans; 2.2 mg/L, read-out: Growth Inhibition (%) C. albicans): 100% | inhibition at […] (C. albicans; 4.5 mg/L, read-out: Growth Inhibition (%) C. albicans): 100% | inhibition at […] (C. albicans; 8.9 mg/L, read-out: Growth Inhibition (%) C. albicans): 100% | MIC (C. albicans; 120 h, 100% control, 5 days at 28 C, read-out: minimum inhibitory concentration (MIC) for C. albicans): 2.2 µg/mL (≈ 14.5 µM)

— US12329158B2, “Large-scale methods of uniformly coating packaging surfaces with a volatile antimicrobial to preserve food freshness” (AGROFRESH INC., priority 2013, dated 2025)
